Earlier results as cited in patent publication US4804651A, “Methods and compositions for the treatment of psoriasis” (Board of Regents, The University of Texas System, priority 1987, dated 1989).

Conditions: cited from earlier work

## Cc1cn([C@H]2C[C@H](N=[N+]=[N-])[C@@H](CO[C@@H]3O[C@H](C(=O)O)[C@@H](O)[C@H](O)[C@H]3O)O2)c(=O)[nH]c1=O [GAZT, 5'-glucuronide of AZT]
In vivo
  activity of the metabolite: inactive
Plasma and urine
  metabolite identification: major plasma and urinary metabolite
plasma
  clearance from plasma (metabolite): rapidly cleared from plasma
  plasma level relative to the corresponding AZT level: 2-3 ×
